Test results taken from paper PMC10281575, “PfCRT mutations conferring piperaquine resistance in falciparum malaria shape the kinetics of quinoline drug binding and transport” (PLOS Pathogens, 2023).
“And” between values parts separate entries of the source, which are not always exact repeats. Equal entries are not always repeated.

Biological target: T1, PfCRT^Dd2 (Plasmodium falciparum, UniProt Q8IBZ9, A220S/I356T/K76T/M74I/N326S/N75E/Q271E/R371I)
T1 sequence (Q8IBZ9 1-424 M74I/N75E/K76T/A220S/Q271E/N326S/I356T/R371I): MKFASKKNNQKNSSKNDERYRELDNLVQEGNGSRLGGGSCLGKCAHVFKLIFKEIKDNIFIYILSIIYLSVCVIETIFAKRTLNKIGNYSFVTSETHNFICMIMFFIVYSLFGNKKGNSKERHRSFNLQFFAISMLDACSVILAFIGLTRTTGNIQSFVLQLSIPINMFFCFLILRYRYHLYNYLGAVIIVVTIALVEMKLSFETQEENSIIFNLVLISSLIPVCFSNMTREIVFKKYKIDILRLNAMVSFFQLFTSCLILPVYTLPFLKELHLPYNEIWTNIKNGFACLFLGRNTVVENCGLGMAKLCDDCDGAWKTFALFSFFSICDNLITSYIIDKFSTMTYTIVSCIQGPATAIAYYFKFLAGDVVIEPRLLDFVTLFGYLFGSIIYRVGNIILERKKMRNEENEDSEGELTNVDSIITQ
Experiment: Competition kinetics of drug transport (radiolabeled substrate plus cold inhibitor), PfCRT^Dd2-expressing oocytes
Format: cell-based
Set-up: expressed in transfected cells; host or cells: Xenopus laevis oocytes injected with in vitro transcribed RNA (pSP64T)
Conditions: single replicates
Experimental: The experimental procedure and the data analysis were as described above.
The difference between the two models lies in the value of α, a parameter describing how much the affinity for the substrate changes when the inhibitor is already bound, and vice versa. […] The resulting Vmax,app values and the Vmax,app/KM,app ratios were plotted as a function of the inhibitor concentration (Fig 5A).
Drug transport assays were performed as previously described. Briefly, measurements of radiolabeled drug uptake were made over 1 h, unless otherwise specified. […] Where specified, one or more unlabeled drugs were also present at the indicated concentrations. […] The uptake assays were terminated by removing the oocytes from the reaction medium and washing them three times with 2 mL of ice-cold ND96 buffer. Each oocyte was transferred to a separate scintillation vial and lysed by the addition of 200 μL of a 5% SDS solution. The radioactivity in the sample was measured using a liquid scintillation analyser Tri-Carb 4910 TR (PerkinElmer). Water-injected oocytes were analyzed in parallel as a negative control. The buffer from each condition was measured in duplicate in parallel to each experiment to transform counts per minute into pmol of drug. Drug uptake attributable to PfCRT was determined by subtracting the background uptake from water-injected oocytes from that of PfCRT-expressing oocytes. In all cases, at least three independent experiments were performed on oocytes from different frogs, and for each condition in an experiment, measurements were made from 10 oocytes per treatment.
The following equations were adopted from Segel (1993), and the reader is referred to that text for the assumptions made in the author’s approach in the derivation of each equation [31]. The concentration of substrate is denoted as [S1] and the concentration of the inhibiting substrate is denoted as [S2]. KS1 and KS2 are the dissociation constants for the respective substrate-protein complexes.
Analyses of the kinetic data were performed using SigmaPlot version 13.0 and Python. The drug competition models were globally fit to the kinetic data using the least-squares method and ranked according to their corrected Akaike information criterion difference (ΔAICC) and their Akaike weight, using Python. The two top-ranked models were compared using an F-test.
This factor reflects how much the affinity of the transporter for one drug changes when the other drug is already bound in the protein cavity. In the former model, α > 0 and α ≠ 1. In the latter model, it could be thought of as if α = 1. Because of this, discriminating between the two models also means determining the value of α. In Mixed-type (Partial) inhibition, the apparent maximal velocity (Vmax,app) is given by Eq 22, Vmax,app=Vmax(1+β[S2]/αKS2)/(1+[S2]/αKS2) (Eq 22)
Vmax,app is the maximal rate of substrate transport at a certain inhibitor concentration. The half-maximal inhibitory concentration is given by the term in the denominator different from [S2], which in this case is αKS2. This means that by plotting Vmax,app as a function of [S2], the value of αKS2 can be derived after fitting the curve to Eq 23.
The half-maximal inhibitory concentration derived from this hyperbolic equation is equal to KS2. By plotting Vmax,app/KM,app as a function of [S2], one can derive KS2 after fitting the curve to Eq 25. The value of α can then be calculated dividing αKS2 by KS2.

Clc1ccc2c(N3CCN(CCCN4CCN(c5ccnc6cc(Cl)ccc56)CC4)CC3)ccnc2c1 [PPQ, piperaquine]
PfCRTDd2-mediated PPQ transport 10 µM PPQ (0 µM CQ): 7.56 pmol oocyte-1 h-1 and 10.37 pmol oocyte-1 h-1 and 9.52 pmol oocyte-1 h-1
PfCRTDd2-mediated PPQ transport 10 µM PPQ (25 µM CQ): 5.90 pmol oocyte-1 h-1 and 7.56 pmol oocyte-1 h-1 and 12.12 pmol oocyte-1 h-1
PfCRTDd2-mediated PPQ transport 10 µM PPQ (50 µM CQ): 9.48 pmol oocyte-1 h-1 and 7.04 pmol oocyte-1 h-1 and 8.33 pmol oocyte-1 h-1
PfCRTDd2-mediated PPQ transport 10 µM PPQ (125 µM CQ): 5.75 pmol oocyte-1 h-1 and 8.54 pmol oocyte-1 h-1 and 9.92 pmol oocyte-1 h-1
PfCRTDd2-mediated PPQ transport 10 µM PPQ (200 µM CQ): 6.96 pmol oocyte-1 h-1 and 8.23 pmol oocyte-1 h-1 and 6.73 pmol oocyte-1 h-1
PfCRTDd2-mediated PPQ transport 10 µM PPQ (400 µM CQ): 6.34 pmol oocyte-1 h-1 and 7.80 pmol oocyte-1 h-1 and 6.93 pmol oocyte-1 h-1
PfCRTDd2-mediated PPQ transport 50 µM PPQ (0 µM CQ): 28.14 pmol oocyte-1 h-1 and 21.87 pmol oocyte-1 h-1 and 89.78 pmol oocyte-1 h-1 and 46.28 pmol oocyte-1 h-1 and 30.01 pmol oocyte-1 h-1 and 33.33 pmol oocyte-1 h-1
PfCRTDd2-mediated PPQ transport 50 µM PPQ (25 µM CQ): 38.92 pmol oocyte-1 h-1 and 37.28 pmol oocyte-1 h-1 and 39.83 pmol oocyte-1 h-1
PfCRTDd2-mediated PPQ transport 50 µM PPQ (50 µM CQ): 39.65 pmol oocyte-1 h-1 and 31.99 pmol oocyte-1 h-1 and 26.06 pmol oocyte-1 h-1
PfCRTDd2-mediated PPQ transport 50 µM PPQ (125 µM CQ): 26.33 pmol oocyte-1 h-1 and 27.41 pmol oocyte-1 h-1 and 34.41 pmol oocyte-1 h-1
PfCRTDd2-mediated PPQ transport 50 µM PPQ (200 µM CQ): 26.27 pmol oocyte-1 h-1 and 27.81 pmol oocyte-1 h-1 and 32.81 pmol oocyte-1 h-1
PfCRTDd2-mediated PPQ transport 50 µM PPQ (400 µM CQ): 19.16 pmol oocyte-1 h-1 and 25.87 pmol oocyte-1 h-1 and 24.41 pmol oocyte-1 h-1
PfCRTDd2-mediated PPQ transport 100 µM PPQ (0 µM CQ): 59.97 pmol oocyte-1 h-1 and 33.72 pmol oocyte-1 h-1 and 64.52 pmol oocyte-1 h-1
PfCRTDd2-mediated PPQ transport 100 µM PPQ (25 µM CQ): 49.79 pmol oocyte-1 h-1 and 57.28 pmol oocyte-1 h-1 and 48.06 pmol oocyte-1 h-1
PfCRTDd2-mediated PPQ transport 100 µM PPQ (50 µM CQ): 52.12 pmol oocyte-1 h-1 and 55.31 pmol oocyte-1 h-1 and 42.70 pmol oocyte-1 h-1
PfCRTDd2-mediated PPQ transport 100 µM PPQ (125 µM CQ): 58.54 pmol oocyte-1 h-1 and 43.73 pmol oocyte-1 h-1 and 42.26 pmol oocyte-1 h-1
PfCRTDd2-mediated PPQ transport 100 µM PPQ (200 µM CQ): 53.47 pmol oocyte-1 h-1 and 42.58 pmol oocyte-1 h-1 and 43.06 pmol oocyte-1 h-1
PfCRTDd2-mediated PPQ transport 100 µM PPQ (400 µM CQ): 44.21 pmol oocyte-1 h-1 and 36.58 pmol oocyte-1 h-1 and 41.48 pmol oocyte-1 h-1
PfCRTDd2-mediated PPQ transport 200 µM PPQ (0 µM CQ): 87.13 pmol oocyte-1 h-1 and 109.05 pmol oocyte-1 h-1 and 57.84 pmol oocyte-1 h-1
PfCRTDd2-mediated PPQ transport 200 µM PPQ (25 µM CQ): 75.61 pmol oocyte-1 h-1 and 76.21 pmol oocyte-1 h-1 and 79.18 pmol oocyte-1 h-1
PfCRTDd2-mediated PPQ transport 200 µM PPQ (50 µM CQ): 78.47 pmol oocyte-1 h-1 and 73.08 pmol oocyte-1 h-1 and 76.77 pmol oocyte-1 h-1
PfCRTDd2-mediated PPQ transport 200 µM PPQ (125 µM CQ): 74.89 pmol oocyte-1 h-1 and 84.24 pmol oocyte-1 h-1 and 63.70 pmol oocyte-1 h-1
PfCRTDd2-mediated PPQ transport 200 µM PPQ (200 µM CQ): 63.70 pmol oocyte-1 h-1 and 74.56 pmol oocyte-1 h-1 and 71.51 pmol oocyte-1 h-1
PfCRTDd2-mediated PPQ transport 200 µM PPQ (400 µM CQ): 58.65 pmol oocyte-1 h-1 and 62.98 pmol oocyte-1 h-1 and 61.98 pmol oocyte-1 h-1
PfCRTDd2-mediated PPQ transport 300 µM PPQ (0 µM CQ): 90.42 pmol oocyte-1 h-1 and 110.91 pmol oocyte-1 h-1 and 77.44 pmol oocyte-1 h-1
PfCRTDd2-mediated PPQ transport 300 µM PPQ (25 µM CQ): 75.46 pmol oocyte-1 h-1 and 93.24 pmol oocyte-1 h-1 and 86.36 pmol oocyte-1 h-1
PfCRTDd2-mediated PPQ transport 300 µM PPQ (50 µM CQ): 67.98 pmol oocyte-1 h-1 and 93.33 pmol oocyte-1 h-1 and 91.69 pmol oocyte-1 h-1
PfCRTDd2-mediated PPQ transport 300 µM PPQ (125 µM CQ): 84.14 pmol oocyte-1 h-1 and 87.90 pmol oocyte-1 h-1 and 73.92 pmol oocyte-1 h-1
PfCRTDd2-mediated PPQ transport 300 µM PPQ (200 µM CQ): 93.36 pmol oocyte-1 h-1 and 73.07 pmol oocyte-1 h-1 and 56.74 pmol oocyte-1 h-1 and 73.66 pmol oocyte-1 h-1
PfCRTDd2-mediated PPQ transport 300 µM PPQ (400 µM CQ): 91.78 pmol oocyte-1 h-1 and 67.51 pmol oocyte-1 h-1 and 51.42 pmol oocyte-1 h-1
PfCRTDd2-mediated PPQ transport 400 µM PPQ (0 µM CQ): 113.37 pmol oocyte-1 h-1 and 109.88 pmol oocyte-1 h-1 and 74.49 pmol oocyte-1 h-1
PfCRTDd2-mediated PPQ transport 400 µM PPQ (25 µM CQ): 93.45 pmol oocyte-1 h-1 and 86.08 pmol oocyte-1 h-1 and 106.77 pmol oocyte-1 h-1
PfCRTDd2-mediated PPQ transport 400 µM PPQ (50 µM CQ): 86.04 pmol oocyte-1 h-1 and 73.87 pmol oocyte-1 h-1 and 103.05 pmol oocyte-1 h-1
PfCRTDd2-mediated PPQ transport 400 µM PPQ (125 µM CQ): 77.98 pmol oocyte-1 h-1 and 81.70 pmol oocyte-1 h-1 and 88.40 pmol oocyte-1 h-1
PfCRTDd2-mediated PPQ transport 400 µM PPQ (200 µM CQ): 78.64 pmol oocyte-1 h-1 and 88.68 pmol oocyte-1 h-1 and 77.87 pmol oocyte-1 h-1
PfCRTDd2-mediated PPQ transport 400 µM PPQ (400 µM CQ): 83.22 pmol oocyte-1 h-1 and 67.13 pmol oocyte-1 h-1 and 69.51 pmol oocyte-1 h-1
PfCRTDd2-mediated PPQ transport 500 µM PPQ (0 µM CQ): 118.94 pmol oocyte-1 h-1 and 82.44 pmol oocyte-1 h-1 and 112.35 pmol oocyte-1 h-1
PfCRTDd2-mediated PPQ transport 500 µM PPQ (25 µM CQ): 95.67 pmol oocyte-1 h-1 and 107.56 pmol oocyte-1 h-1 and 100.57 pmol oocyte-1 h-1
